# Reference: patent publication US5849484A, “In vitro assay for inhibitors of the intron self-splicing reaction in Pneumocystis carinii” (University of Medicine & Dentistry of NJ, priority 1995, dated 1998)
# Assays:
# [1] = test system: Group I self-splicing intron (ribozyme) from the 26S rRNA gene of Pneumocystis carinii, isolate Pc1; assay: In vitro self-splicing of the Group I intron, assayed by splicing of [32P]RNA precursor or by [alpha-32P]GTP incorporation; format: biochemical; conditions: for mode of inhibition (kinetic analysis): relative to GTP/guanosine; for inhibition of splicing at 500 μM: inhibitor at 500 μM; for inhibition of splicing of the 26S rRNA intron: result in words, 5 mM MgCl2, 100 μM GTP unless otherwise indicated, 37° C., 20 minutes; for replacement of GTP in the splicing reaction: equal concentrations to GTP
# Protocol: Polymerase chain reaction (PCR) amplification (56) of the intron from the 26S rRNA gene and a portion of the 5' and 3' flanking exons (660 nucleotides of amplified rRNA gene), between nucleotides 1963 and 2267 of 26S rRNA of isolate Pc1 was performed with primers 4208 (5'-[…]-3') (SEQ ID NO:33), whose first 17 nucleotides are a bacteriophage SP6 promoter (57), and 4358 (5'-GACGAGGCATTTGGCTACC-3') (SEQ ID NO:35) in a DNA Thermal Cycler (Perkin-Elmer-Cetus), under conditions recommended by the manufacturer. For some experiments a longer PCR product (1296 nucleotides of amplified rRNA gene) was generated by similar methods, using primers 4208 and 3734 (5'-[…]-3') to amplify the region between nucleotides 1963 and 2903 of 26S rRNA. Transcription of PCR product DNA (1 μg) by SP6 RNA polymerase to produce E1-I-E2 RNA precursor (1296 or 660 nucleotides in length) was carried out using the Riboprobe System II (Promega) under the recommended conditions.
# Radioactive RNA precursor (1296 nucleotides, 1 nM) was incubated at 37° C. for 30 minutes in the presence of 50 mM Tris-HCl, pH 7.5, 0.4 mM spermidine, 4 units of RNasin, 100 μM guanosine triphosphate (GTP) and the indicated concentrations of MgCl2 in a volume of 10 μl. Reactions were terminated by addition of 10 μl of 8M urea containing 5 mM Na-EDTA, pH 8.0, and 0.025% each of bromphenol blue and xylene cyanol, followed by heating at 65° C. for 3 minutes and PAGE, with visualization by autoradiography. Lane M contains RNA standards (molecular weights 1.77, 1.52, 1.28, 0.78, 0.53, 0.40, 0.28, and 0.16 kd, BRL), 5'-labeled with ^32 p using bacteriophage T4 polynucleotide kinase (Pharmacia). Lane 1, purified RNA precursor; lane 2, GTP omitted, 5 mM MgCl2; lane 3, no MgCl2, 1 mM EDTA; lanes 4-11, reactions run in the presence of 0, 1, 5, 25, 50, 100, 200 or 500 mM MgCl2, respectively. O indicates origin; P, RNA precursor; I, linear intron; E1-E2, spliced RNA product; C, presumed circularized intron. Bands corresponding to the 5' exon (E1) and G-intron-3' exon (I-E2) are not visible on this exposure.
# FIGS. 13A through 13D show the inhibition of intron splicing by antibiotics. All experiments were done with 660 nucleotide RNA precursor. In vitro splicing of [^32 P]RNA precursor was performed in the presence of 5 mM MgCl2 and 100 μM GTP (unless otherwise indicated) at 37° C. for 20 minutes as in FIG. 12. Splicing of unpurified transcripts extracted from SP6 RNA polymerase reactions was performed with 12.5 nM of [α-^32 P]GTP replacing non-radioactive GTP. Bands are identified as in FIG. 12. FIG. 13A: Inhibition by gentamicin and tetracycline. Purified [^32 P]RNA precursor splicing was performed as indicated. Lane 1, control without GTP; lane 2, complete reaction without antibiotics; lanes 3-7, gentamicin present at 50, 100, 200, 250 and 500 μM; lanes 8-12, tetracycline present at 10, 50, 100, 200, and 400 μM. FIG. 13B: Inhibition of intron splicing by gentamicin and tetracycline. Splicing of non-radioactive RNA was assayed in the presence of [^32 P]GTP with no antibiotic (lanes 1 and 7), with 50, 100, 200, 300, and 500 μM gentamicin (lanes 2-6), and with 50, 100, 200, and 400 μM tetracycline (lanes 8-11). FIG. 13C: Splicing inhibition by ethidium bromide. Reactions of [^32 P]RNA precursor were run in the presence of 10 μM GTP (except lane 1 which contained neither GTP nor ethidium bromide); lanes 2-7, reactions run in the presence of ethidium bromide at 0, 0.5, 1, 5, 10, and 25 μM, respectively. […] FIG. 13D: Inhibition of splicing by ethidium bromide, as measured by incorporation of [α-^32 P]GTP. Lanes 1-5, reactions run in the presence of 0, 0.5, 1, 5 and 25 μM ethidium bromide, respectively.
# FIGS. 14A and 14B show the inhibition of intron splicing by pentamidine. Reactions were performed as in FIG. 13, with 660 nucleotide RNA precursor. FIG. 14A: Assays of splicing of [^32 P]RNA precursor. […]
# [2] = test system: Group I self-splicing intron from the 16S rRNA gene of P. carinii; assay: In vitro self-splicing of the intron from the 16S rRNA gene; format: biochemical, Pneumocystis carinii; conditions: result in words
# Excerpt: Inhibition by aminoglycosides of splicing of other group I introns has previously been described (55,61). […] Some radioactivity remaining at the gel origin and a decrease in precursor entering the gel in the presence of high levels of gentamicin (FIG. 13A) may reflect RNA binding by the antibiotic. […] This mechanism would be consistent with the lack of inhibition of splicing of group II introns by these agents (55,61).
# Alternatively, the paired aromatic rings and/or positively charged moieties of pentamidine might act to distort the intron's secondary structure, which is critical to its catalytic function (63). […] If the ability of pentamidine analogues (49) to inhibit splicing correlates with in vivo activity against experimental PCP then this assay would be useful for this purpose.
# Saccharomyces cerevisiae = conditions: grown in glycerol versus fermentable sugars; cited from earlier work
Compound,inhibition of splicing at 500 μM [1],inhibition of splicing of the 26S rRNA intron [1],other results
[H]/N=C(/N)N[C@H]1[C@H](O)[C@@H](O)[C@H](O[C@@H]2O[C@@H](C)[C@](O)(C=O)[C@H]2O[C@@H]2O[C@@H](CO)[C@H](O)[C@@H](O)[C@@H]2NC)[C@@H](N/C(N)=N\[H])[C@@H]1O [streptomycin],–,–,mode of inhibition (kinetic analysis) [1]: competition with guanosine
COc1ccc(C[C@H](N)C(=O)N[C@H]2[C@@H](O)[C@H](n3cnc4c(N(C)C)ncnc43)O[C@@H]2CO)cc1 [puromycin],failed to inhibit splicing by either assay,–,–
gentamicin,–,inhibited splicing,"sensitivity of splicing assayed by incorporation of [α-32P]GTP into I and I-E2 ([1]; compared with splicing of radioactive RNA precursor, 12.5 nM [α-32P]GTP): less sensitive"
CN[C@@H]1[C@@H](O)[C@@H](O[C@@H]2[C@@H](O)[C@H](O[C@H]3O[C@H]([C@@H](C)O)[C@@H](O)[C@H](O)[C@H]3N)[C@@H](N)C[C@H]2N)OC[C@]1(C)O [G418],failed to inhibit splicing,–,–
C[C@@H]1C[C@@H]([C@H](O)CC2CC(=O)NC(=O)C2)C(=O)[C@@H](C)C1 [cycloheximide],failed to inhibit splicing by either assay,–,–
N=C(N)c1ccc(OCCCCCOc2ccc(C(=N)N)cc2)cc1 [Pentamidine],–,inhibited splicing,inhibition of splicing of the 16S rRNA intron [2]: inhibited splicing; effect on the first step of the splicing reaction ([1]; kinetic analysis): acting on the first step; mode of inhibition (kinetic analysis) [1]: non-competitive; sensitivity of growth to pentamidine (Saccharomyces cerevisiae): more sensitive to pentamidine when grown in glycerol than in various fermentable sugars
"Nc1nc2c(ncn2[C@@H]2O[C@H](COP(=O)(O)OP(=O)(O)OP(=O)(O)O)[C@@H](O)[C@H]2O)c(=O)[nH]1 [GTP, guanosine triphosphate]",–,–,"Km ([1]; in vitro splicing, 5 mM MgCl2, 37° C.): 3 µM"
CC[n+]1c(-c2ccccc2)c2cc(N)ccc2c2ccc(N)cc21 [ethidium bromide],–,completely inhibiting splicing by either assay,–
tri-arginine,–,–,"potency relative to L-arginine / arginine ([1]; inhibition of splicing): at least 1,000 times"
N=C(N)NCCC[C@H](N)C(=O)O [arginine],–,inhibited competitively by high concentrations,mode of inhibition (kinetic analysis) [1]: competitively
"Nc1nc2c(ncn2[C@@H]2O[C@H](COP(=O)(O)OP(=O)(O)O)[C@@H](O)[C@H]2O)c(=O)[nH]1 [GDP, guanosine diphosphate]",–,–,replacement of GTP in the splicing reaction [1]: replaceable by equal concentrations
O=C(N[C@H](CO)[C@H](O)c1ccc([N+](=O)[O-])cc1)C(Cl)Cl [chloramphenicol],failed to inhibit splicing by either assay,–,–
CC1(C)S[C@@H]2[C@H](NC(=O)[C@H](N)c3ccccc3)C(=O)N2[C@H]1C(=O)O [Ampicillin],failed to inhibit,–,–
CCC[C@@H]1C[C@@H](C(=O)N[C@@H]([C@H]2O[C@H](SC)[C@H](O)[C@@H](O)[C@H]2O)[C@H](C)Cl)N(C)C1 [clindamycin],failed to inhibit splicing by either assay,–,–
NC(=O)NCCC[C@H](N)C(=O)O [citrulline],–,no detectable inhibition,–
O=C(O)C1=CC(=C(c2ccc(O)c(C(=O)O)c2)c2ccc(O)c(C(=O)O)c2)C=CC1=O [aurintricarboxylic acid],failed to inhibit splicing by either assay,–,–
"Nc1nc2c(ncn2[C@@H]2O[C@H](COP(=O)(O)O)[C@@H](O)[C@H]2O)c(=O)[nH]1 [GMP, guanosine monophosphate]",–,–,replacement of GTP in the splicing reaction [1]: replaceable by equal concentrations
CN(C)C1C(=O)C(C(N)=O)=C(O)C2(O)C(=O)C3=C(O)c4c(O)cccc4C(C)(O)C3CC12 (centres unmarked) [tetracycline],–,inhibits RNA splicing,mode of inhibition (kinetic analysis) [1]: non-competitive with GTP
N=C(N)NCCC[C@@H](N)C(=O)O [D-arginine],–,greater for L-arginine than D-arginine,–
N=C(N)NCCC[C@H](N)C(=O)O [L-arginine],–,greater for L-arginine than D-arginine,effect on the first step of the splicing reaction ([1]; kinetic analysis): inhibiting the first step; effect on the second step of the splicing reaction ([1]; kinetic analysis): activate the second step
